This is an account of results in patent US11713306B2, “5-substituted difluoropiperidine compounds with blood-brain barrier penetrable capability” (Wayshine Biopharm Holding Limited, priority 2018, dated 2023).

The IC50 is the point on the concentration scale where inhibition reaches its midpoint. Low readings indicate inhibition by little substance, high ones a need for much substance.

A value given as a limit tells only on which side of the number the result lay.

The target of the experiment is FYN (Homo sapiens (Human), UniProt P06241). Kind of experiment: Kinase inhibition assay (Caliper, FAM-labeled peptide substrate). In kind it is biochemical. On the procedure:
2.5 times of the kinase (VEGFR2 or EGFR or FYN) buffer solution was added to the compound diluted in equal concentration in the 384-well plate and incubated at 22-27° C. for 10 minutes, then 2.5 times of the FAM-labeled peptide substrate and ATP buffer solution were added therein and incubated at 28° C., and then the stop buffer solution was added to stop the reaction. The data was read by Caliper and the following formula was used to calculate the IC50 inhibition: Percent inhibition=(max-conversion)/(max-min)*100. Staurosporine was used as a control. In kinase inhibition assays, some of the compounds of the present invention are effective in inhibiting VEGFR2/FYN/EGFR, so they have the potential for treating or preventing cancer or central nervous system diseases (Table 1).

FYN, sequence (P06241 whole entry): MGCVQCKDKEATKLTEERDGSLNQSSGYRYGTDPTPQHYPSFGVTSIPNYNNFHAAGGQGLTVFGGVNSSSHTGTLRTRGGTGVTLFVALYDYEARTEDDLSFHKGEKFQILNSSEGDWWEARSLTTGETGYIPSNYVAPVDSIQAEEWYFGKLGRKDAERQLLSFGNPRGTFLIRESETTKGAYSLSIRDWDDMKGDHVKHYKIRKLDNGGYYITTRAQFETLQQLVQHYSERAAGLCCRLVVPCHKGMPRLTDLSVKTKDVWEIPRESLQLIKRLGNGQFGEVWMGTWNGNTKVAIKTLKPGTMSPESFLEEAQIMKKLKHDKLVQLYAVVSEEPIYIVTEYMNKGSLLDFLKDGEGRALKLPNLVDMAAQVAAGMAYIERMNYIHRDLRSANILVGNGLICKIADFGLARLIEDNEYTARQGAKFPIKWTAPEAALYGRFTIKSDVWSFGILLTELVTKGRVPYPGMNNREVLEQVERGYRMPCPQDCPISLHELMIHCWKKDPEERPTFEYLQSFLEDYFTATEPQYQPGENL

Consider `COc1cc(O[C@H]2CCN(C3COC3)CC2(F)F)c2c(Nc3c(Cl)ccc4c3OCO4)ncnc2c1` [Compound 46, (S)-5-((3,3-difluoro-1-(oxetane-3-yl)piperidin-4-yl)oxy)-N-(5-chlorobenzo[d][1,3]dioxolcyclopenten-4-yl)-7-methoxyquinazolin-4-amine], for which the IC50 was less than 100 nM.
`COc1cc(OC2CCN(C)CC2(F)F)c2c(Nc3cc(OC)c(Cl)cc3F)ncnc2c1` (racemic) [Compound 8, (R/S)—N-(4-chloro-2-fluoro-5-methoxyphenyl)-5-((3,3-difluoro-1-methylpiperidin-4-yl)oxy)-7-methoxyquinazolin-4-amine] yielded an IC50 of less than 100 nM.
For `CCN1CC[C@@H](Oc2cc(OC)cc3ncnc(Nc4c(F)ccc5c4OCO5)c23)C(F)(F)C1` [Compound 26, (R)-5-((1-ethyl-3,3-difluoropiperidin-4-yl)oxy)-N-(5-fluorobenzo[d] [1,3]dioxolcyclopenten-4-yl)-7-methoxyquinazolin-4-amine], the IC50 was less than 100 nM.
Regarding `CCOc1cc(O[C@@H]2CCN(C)CC2(F)F)c2c(Nc3c(F)ccc4c3OCO4)ncnc2c1` [Compound 22, (R)—N-(5-fluorobenzo[d][1,3]dioxolcyclopenten-4-yl)-5-((3,3-difluoro-1-methylpiperidin-4-yl)oxy)-7-ethoxyquinazolin-4-amine], the half-inhibitory concentration (IC50) is less than 100 nM.
The compound `COc1cc(O[C@H]2CCN(C)CC2(F)F)c2c(Nc3c(F)ccc4c3OCO4)ncnc2c1` [Compound 39, (S)—N-(5-fluorobenzo[d][1,3]dioxolcyclopenten-4-yl)-5-((3,3-difluoro-1-methylpiperidin-4-yl)oxy)-7-deuterated methoxyquinazolin-4-amine] yielded a half-inhibitory concentration (IC50) of less than 100 nM.
The figure for `COc1cc(OC2CCN(C)CC2(F)F)c2c(Nc3c(F)ccc4c3OCO4)ncnc2c1` (racemic) [Compound 7, (R/S)—N-(5-fluorobenzo[d][1,3]dioxolcyclopenten-4-yl)-5-((3,3-difluoro-1-methylpiperidin-4-yl)oxy)-7-deuterated methoxyquinazolin-4-amine] is less than 100 nM; for `COc1cc(O[C@@H]2CCN(C)CC2(F)F)c2c(Nc3c(Cl)ccc4c3OCO4)ncnc2c1` [Compound 28, (R)—N-(5-chlorobenzo[d] [1,3]dioxolcyclopenten-4-yl)-5-((3,3-difluoro-1-methylpiperidin-4-yl)oxy)-7-deuterated methoxyquinazolin-4-amine] it is less than 100 nM.
In the case of `COc1cc(OC2CCN(C3COC3)CC2(F)F)c2c(Nc3c(F)ccc4c3OCO4)ncnc2c1` (racemic) [Compound 13, (R/S)-5-((3,3-difluoro-1-(oxetane-3-yl)piperidin-4-yl)oxy)-N-(5-fluorobenzo[d][1,3]dioxolcyclopenten-4-yl)-7-methoxyquinazolin-4-amine], the IC50 was less than 100 nM.
`CCOc1cc(OC2CCN(C)CC2(F)F)c2c(Nc3c(Cl)ccc4c3OCO4)ncnc2c1` (racemic) [Compound 9, (R/S)—N-(5-chlorobenzo[d][1,3]dioxolcyclopenten-4-yl)-5-((3,3-difluoro-1-methylpiperidin-4-yl)oxy)-7-ethoxyquinazolin-4-amine] came in with an IC50 of less than 100 nM.
Next, `COc1cc(O[C@@H]2CCN(C(C)C)CC2(F)F)c2c(Nc3c(F)ccc4c3OCO4)ncnc2c1` [Compound 31, (R)-5-((3,3-difluoro-1-isopropylpiperidin-4-yl)oxy)-N-(5-fluorobenzo[d] [1,3]dioxolcyclopenten-4-yl)-7-methoxyquinazolin-4-amine]: less than 100 nM.
In turn, `COc1cc(OC2CCN(C)CC2(F)F)c2c(Nc3c(Cl)ccc4c3OCO4)ncnc2c1` (racemic) [Compound 4, (R/S)—N-(5-chlorobenzo[d][1,3]dioxolcyclopenten-4-yl)-5-((3,3-difluoro-1-methylpiperidin-4-yl)oxy)-7-methoxyquinazolin-4-amine] yielded an IC50 of less than 100 nM.
`CCOc1cc(OC2CCN(C)CC2(F)F)c2c(Nc3c(F)ccc4c3OCO4)ncnc2c1` (racemic) [Compound 6, (R/S)—N-(5-fluorobenzo[d][1,3]dioxolcyclopenten-4-yl)-5-((3,3-difluoro-1-methylpiperidin-4-yl)oxy)-7-ethoxyquinazolin-4-amine]: the IC50 is less than 100 nM.
`COc1cc(O[C@@H]2CCN(C)CC2(F)F)c2c(Nc3cc(OC)c(Cl)cc3F)ncnc2c1` [Compound 24, (R)—N-(4-chloro-2-fluoro-5-methoxyphenyl)-5-((3,3-difluoro-1-methylpiperidin-4-yl)oxy)-7-methoxyquinazolin-4-amine] came in with an IC50 of less than 100 nM.
Compound `COc1cc(O[C@H]2CCN(C3COC3)CC2(F)F)c2c(Nc3c(F)ccc4c3OCO4)ncnc2c1` [Compound 45, (S)-5-((3,3-difluoro-1-(oxetane-3-yl)piperidin-4-yl)oxy)-N-(5-fluorobenzo[d] [1,3]dioxolcyclopenten-4-yl)-7-methoxyquinazolin-4-amine] returned an IC50 of less than 100 nM.
Next, `CCN1CC[C@H](Oc2cc(OC)cc3ncnc(Nc4c(F)ccc5c4OCO5)c23)C(F)(F)C1` [Compound 42, (S)-5-((1-ethyl-3,3-difluoropiperidin-4-yl)oxy)-N-(5-fluorobenzo[d] [1,3]dioxolcyclopenten-4-yl)-7-methoxyquinazolin-4-amine]: less than 100 nM.
The compound `COc1cc(O[C@H]2CCN(C)CC2(F)F)c2c(Nc3c(F)ccc4c3OCO4)ncnc2c1` [Compound 37, (S)—N-(5-fluorobenzo[d][1,3]dioxolcyclopenten-4-yl)-5-((3,3-difluoro-1-methylpiperidin-4-yl)oxy)-7-methoxyquinazolin-4-amine] returned an IC50 of less than 100 nM.
`COc1cc(OC2CCN(C(C)C)CC2(F)F)c2c(Nc3c(F)ccc4c3OCO4)ncnc2c1` (racemic) [Compound 15, (R/S)-5-((3,3-difluoro-1-isopropylpiperidin-4-yl)oxy)-N-(5-fluorobenzo[d][1,3]dioxolcyclopenten-4-yl)-7-methoxyquinazolin-4-amine]: the IC50 was less than 100 nM.
For `COc1cc(O[C@H]2CCN(C)CC2(F)F)c2c(Nc3cc(OC)c(Cl)cc3F)ncnc2c1` [Compound 40, (S)—N-(4-chloro-2-fluoro-5-methoxyphenyl)-5-((3,3-difluoro-1-methylpiperidin-4-yl)oxy)-7-methoxyquinazolin-4-amine], the IC50 was less than 100 nM.
Turning to `CCOc1cc(O[C@H]2CCN(C)CC2(F)F)c2c(Nc3c(F)ccc4c3OCO4)ncnc2c1` [Compound 38, (S)—N-(5-fluorobenzo[d][1,3]dioxolcyclopenten-4-yl)-5-((3,3-difluoro-1-methylpiperidin-4-yl)oxy)-7-ethoxyquinazolin-4-amine], the IC50 was less than 100 nM.
In turn, `COc1cc(O[C@H]2CCN(C)CC2(F)F)c2c(Nc3c(Cl)ccc4c3OCO4)ncnc2c1` [Compound 36, (S)—N-(5-chlorobenzo[d][1,3]dioxolcyclopenten-4-yl)-5-((3,3-difluoro-1-methylpiperidin-4-yl)oxy)-7-methoxyquinazolin-4-amine] gave an IC50 of less than 100 nM.
`COc1cc(OC2CCN(C)CC2(F)F)c2c(Nc3c(F)ccc4c3OCO4)ncnc2c1` (racemic) [Compound 5, (R/S)—N-(5-fluorobenzo[d][1,3]dioxolcyclopenten-4-yl)-5-((3,3-difluoro-1-methylpiperidin-4-yl)oxy)-7-methoxyquinazolin-4-amine] displayed an IC50 of less than 100 nM.
Turning to `CCOc1cc(O[C@H]2CCN(C)CC2(F)F)c2c(Nc3c(Cl)ccc4c3OCO4)ncnc2c1` [Compound 41, (S)—N-(5-chlorobenzo[d][1,3]dioxolcyclopenten-4-yl)-5-((3,3-difluoro-1-methylpiperidin-4-yl)oxy)-7-ethoxyquinazolin-4-amine], the IC50 was less than 100 nM.
Next, `COc1cc(O[C@H]2CCN(C(C)C)CC2(F)F)c2c(Nc3c(F)ccc4c3OCO4)ncnc2c1` [Compound 47, (S)-5-((3,3-difluoro-1-isopropylpiperidin-4-yl)oxy)-N-(5-fluorobenzo[d][1,3]dioxolcyclopenten-4-yl)-7-methoxyquinazolin-4-amine]: less than 100 nM.
`COc1cc(O[C@@H]2CCN(C3COC3)CC2(F)F)c2c(Nc3c(Cl)ccc4c3OCO4)ncnc2c1` [Compound 30, (R)-5-((3,3-difluoro-1-(oxetane-3-yl)piperidin-4-yl)oxy)-N-(5-chlorobenzo[d][1,3]dioxolcyclopenten-4-yl)-7-methoxyquinazolin-4-amine] returned an IC50 of less than 100 nM.
`COc1cc(O[C@@H]2CCN(C)CC2(F)F)c2c(Nc3c(F)ccc4c3OCO4)ncnc2c1` [Compound 23, (R)—N-(5-fluorobenzo[d][1,3]dioxolcyclopenten-4-yl)-5-((3,3-difluoro-1-methylpiperidin-4-yl)oxy)-7-deuterated methoxyquinazolin-4-amine] registered an IC50 of less than 100 nM.
The figure for `COc1cc(O[C@H]2CCN(C)CC2(F)F)c2c(Nc3c(Cl)ccc4c3OCO4)ncnc2c1` [Compound 44, (S)—N-(5-chlorobenzo[d] [1,3]dioxolcyclopenten-4-yl)-5-((3,3-difluoro-1-methylpiperidin-4-yl)oxy)-7-deuterated methoxyquinazolin-4-amine] is less than 100 nM; for `COc1cc(O[C@@H]2CCN(C3COC3)CC2(F)F)c2c(Nc3c(F)ccc4c3OCO4)ncnc2c1` [Compound 29, (R)-5-((3,3-difluoro-1-(oxetane-3-yl)piperidin-4-yl)oxy)-N-(5-fluorobenzo[d] [1,3]dioxolcyclopenten-4-yl)-7-methoxyquinazolin-4-amine] it is less than 100 nM.
Compound `COc1cc(OC2CCN(C3COC3)CC2(F)F)c2c(Nc3c(Cl)ccc4c3OCO4)ncnc2c1` (racemic) [Compound 14, (R/S)-5-((3,3-difluoro-1-(oxetane-3-yl)piperidin-4-yl)oxy)-N-(5-chlorobenzo[d][1,3]dioxolcyclopenten-4-yl)-7-methoxyquinazolin-4-amine] came in with an IC50 of less than 100 nM.
